Measured values taken from US4060612A, “Pharmaceutically active 2-omega-aminoalkoxydiphenyl sulfides” (Mitsubishi Chemical Industries Ltd., priority 1976, dated 1977).
Structures can show the parent of a compound that is named as a salt. Where two headings read alike, the source gives them in different places.

Experiments:
[1] = test system: reserpine induced hypothermia; assay: Antagonism of reserpine induced hypothermia in mice (antidepressant / antireserpine activity); type: in vivo; conditions: for Relative Potency (antireserpine activity, Amitriptyline = 1): reserpine 5 mg/kg i.p., compounds given intraperitoneally
Procedure: (§1) Anticonvulsant activity has also been discovered in the compounds of this invention. The compounds have been tested in mice for antidepressant, sedative, anticonvulsant and anticholinergic activity. The compounds were administered intraperitoneally and the activities of the compounds were compared with those of Amitriptyline. Antidepressant activity was evaluated by antagonism of reserpine (5 mg/kg, i.p.) induced hypothermia (P. S. J. Spencer in "Antidepressant Drugs", S. Garattini and M. N. G. Duhes, ed., Excerpta Medica Foundation, Amsterdam, pages 194-204 (1967)) and antireserpine activity was expressed as relative potency (Amitriptyline = 1). LD50 was calculated by the Litchfield-Wilcoxon method. CNS depressant activity was defined by the ability of the compounds to cause neurological deficit as measured by a traction test (S. Courvoisier, R. Ducrot, L. Julou; "Psychotropic Drugs" ed. by S. Garattini, V. Ghetti, page 373 (1957)) and spontaneous motor activity. (Spontaneous motor activity was measured by an ANIMEX apparatus.) Anticonvulsant activity was determined by antagonism of electroshock induced tonic extensor [L. S. Goodman, M. Singh Grewal, W. C. Brown and E. A. Swinyard, J. Pharmacol, Exptal. Therap., 108, 168 (1953)]. Central anticholinergic effect was assessed by testing a tremorine induced tremor in mice [G. M. Everett, L. E. Bloucus and J. M. Sheppard, Science 124, 79 (1956)]. Results of these tests are summarized in Tables I and II, in which ED50 is defined as the dose of the test compounds which prevents 50% of each response.

[2] = test system: spontaneous motor activity; assay: CNS depressant activity: spontaneous motor activity (ANIMEX apparatus); type: in vivo, mice; conditions: Mus musculus, ip, read-out: Spontaneous Motor Activity Depression ED50
Procedure: as §1, with “Therap., 108, 168 (1953)].” left out, “Results of these tests are summarized in Tables I and II, in which ED50 is defined as the dose of the test compounds which prevents 50% of each response.” left out

[3] = test system: electroshock induced tonic extensor; assay: Anticonvulsant activity: antagonism of electroshock induced tonic extensor; type: in vivo, mice; conditions: Mus musculus, ip, read-out: Anticonvulsant Activity ED50
Procedure: as §1, with “Therap., 108, 168 (1953)].” left out, “Results of these tests are summarized in Tables I and II, in which ED50 is defined as the dose of the test compounds which prevents 50% of each response.” left out

tremorine induced tremor = assay: Central anticholinergic effect: tremorine induced tremor in mice; type: in vivo; conditions: for ED50: Mus musculus, ip, read-out: Antitremorine Effect ED50
Procedure: as §1

[4] = Acute toxicity, LD50 (Litchfield-Wilcoxon method); type: in vivo; conditions: for LD50: mouse, in vivo, ip
Procedure: as §1

[5] = test system: neurological deficit (traction test); assay: CNS depressant activity: muscle relaxant action (traction test); type: in vivo, mice; conditions: for ED50: Mus musculus, ip, read-out: Muscle Relaxant Action ED50
Procedure: as §1

[6] = intraperitoneal, mice, Litchfield-Wilcoxon, read-out: LD50

c1ccc(Sc2ccccc2OCCCCN2CCOCC2)cc1 [2-(4-morpholinobutoxy) diphenyl sulfide hydrochloride]
Relative Potency (antireserpine activity, Amitriptyline = 1) [1]: 0.38

CNCCCCOc1ccccc1Sc1ccccc1 [2-(4-methylaminobutoxy) diphenyl sulfide hydrochloride]
ED50 ([2]; ANIMEX, mice, i.p., CNS depressant activity): > 60 mg/kg | antireserpine activity (in words) ([1]; i.p., from Tables I and II): comparable to that of Amitriptyline | Relative Potency (antireserpine activity, Amitriptyline = 1) [1]: 0.90 | ED50 ([3]; electroshock, mice, i.p., dose which prevents 50% of response): > 60 mg/kg | ED50 (tremorine induced tremor; tremorine induced tremor, mice, i.p., central anticholinergic): 30 mg/kg | anticholinergic action (in words) (tremorine induced tremor; mice, i.p.): weak CNS depressant and anticholinergic action | toxicity (in words) ([4]; mice, i.p., from Tables I and II): low toxicity | LD50 [4]: 120 mg/kg | ED50 ([5]; traction test, mice, i.p., CNS depressant activity): 50 mg/kg | CNS depressant action (in words) ([5]; mice, i.p., traction test and spontaneous motor activity): weak

NCCCCOc1ccccc1Sc1ccccc1 [2-(4-aminobutoxy) diphenyl sulfide hydrochloride]
Relative Potency (antireserpine activity, Amitriptyline = 1) [1]: 0.36

CN(C)CCCCOc1ccccc1Sc1ccccc1 [2-(4-dimethylaminobutoxy)-diphenyl sulfide hydrochloride]
Relative Potency (antireserpine activity, Amitriptyline = 1) [1]: 0.70 | LD50 [4, 6]: 130 mg/kg

CN(C)CCCCCOc1ccccc1Sc1ccccc1 [2-(5-dimethylaminopentyloxy) diphenyl sulfide hydrochloride]
Relative Potency (antireserpine activity, Amitriptyline = 1) [1]: 0.15

CNCCCOc1ccccc1Sc1ccccc1 [2-(3-methylaminopropoxy) diphenyl sulfide hydrochloride]
Relative Potency (antireserpine activity, Amitriptyline = 1) [1]: 0.60 | LD50 [4, 6]: 135 mg/kg

CN(C)CCC=C1c2ccccc2CCc2ccccc21 [Amitriptyline, reference compound]
ED50 [2]: 18 mg/kg | ED50 [3]: 16 mg/kg | ED50 (tremorine induced tremor): 4 mg/kg | ED50 [5]: 15 mg/kg

CN(C)CCCOc1ccccc1Oc1ccccc1 [2-(3-dimethylaminopropoxy) diphenyl ether hydrochloride, reference compound]
Relative Potency (antireserpine activity, Amitriptyline = 1) [1]: 0.14
